Here are results for 2 compounds from patent US7759459B2, “Fluorescent assays for protein kinases” (Albert Einstein College of Medicine of Yeshiva University, priority 2003, dated 2010).

The target of test [1] is T1, PKCα (Homo sapiens, UniProt P17252). Kind of test: Radioactive PKC assay ([γ-32P]ATP). Format: biochemical. The note with it: Table 2. How it is done: Radioactive PKC Assay—Radioactive assays were performed in duplicate at 30° C. The final assay volume totaled 40 μl and contained 62.5 mM HEPES (pH 7.4), 0.75 mM CaCl2, 12.5 mM MgCl2, 1 mM dithiothreitol, 0.5 mM EGTA, 7.5 μg/mL phosphatidylserine, 1.6 μg/mL diacylglycerol, and 10 ng of PKC. […] Phosphorylation reactions were initiated by the addition of 10 μL of PKC from a stock solution (20 mM Tris-HCl at pH 7.5, 1 mM dithiothreitol, 1 mM EDTA, and 0.75 mg/mL bovine serum albumin) into 30 μL of assay buffer containing peptide substrate. Reactions were terminated after 5 min by spotting 25 μL aliquots onto phosphocellulose paper disks (2.1 cm in diameter). After 10 s, the disks were immersed in 10% glacial acetic acid and soaked with occasional stirring for at least 1 h. The acetic acid was decanted and the disks were collectively washed with four volumes of 0.5% H3PO4, 1 volume of water, followed by a final acetone rinse. The disks were air dried and then counted in a Beckman LS scintillation counter.

For test [2], the target named is T1, PKCα. Briefly: Fluorescent PKC assay (spectrofluorimetry). Format: biochemical. The note with it: PKC/ATP; fluorescence assay. How it is done: Fluorescent PKC assay-Fluorescence assays were performed in triplicate at 30° C. and initiated by addition of ATP to a 100 μL cuvette containing a 50 μL solution of PKC and peptide substrate 2. Final conditions: 62.5 mM HEPES pH 7.4, 3 mM MgCl2, 0.3 mM CaCl2, 0.1 mM EGTA, 1 mM DTT, 0.5 μg/mL phosphatidylserine, 0.1 μg/mL diacylglycerol, 1 mM ATP, and 13 nM PKC. After the addition of ATP, the solution was gently mixed and the time-dependent change in fluorescent intensity (excitation: 520 nm, emission: […]) continuously monitored with a Photon Technology QM-1 spectrofluorimeter.

In another test the test system is PKC in HeLa cells. Briefly: Microinjection studies in TPA-stimulated living HeLa cells. Format: cell-based. The note with it: co-injected with peptide 2; 20 μM estimated intracellular concentration. How it is done: Microinjection Studies-Subconfluent, serum-starved (24 hr), HeLa cells were cultured on 22 mm coverslips in DMEM in a humidified atmosphere containing 5% CO2. […] Microinjections were performed with an Eppendorf (Brinkman Instruments, Westbury, N.Y.) 5246 microinjection apparatus mounted on the microscope inside the environmental chamber. The peptide was estimated to be diluted 10-fold upon microinjection, using the equation for volume (V) flow through a capillary tube:
[formula] where p is the difference in pressure at the ends of the tube (290 hPa), r the radius (0.05 μm) and l the length (10 μm) of the tube, η the viscosity of the injected solution (0.69×10^−2 g/cm-sec), and t the total injection time (0.3 sec). The average volume of a fibroblast was taken as 2 pL.^18 12-O-tetradecanoyl phorbol-13-acetate (TPA) (1 μM) was added to the media following microinjection to stimulate PKC activity. […] Fluorescence intensity measurements were corrected using values from a standard photobleaching curve generated from control experiments with microinjected HeLa cells that had not been treated with TPA. […]

In another test the target is PKC. The conditions noted are these: cited from earlier work.

“H2N-Ser-Phe-Arg4-Lys(NBD)-amide [peptide 3]”: on PKCα [1], the Km came to 19 ± 1 µM and the kcat came out at 3.5 ± 0.167 s⁻¹. Besides, at PKCα [2], the “fluorescence intensity change following phosphorylation (in words)” value is “No Fluorescence Intensity Change”.

As for `CN(C)CCCn1cc(C2=C(c3c[nH]c4ccccc34)C(=O)NC2=O)c2ccccc21` [GF 109203X], the “effect of inhibitor on TPA-induced enhancement in cellular fluorescence” value in the test with PKC in HeLa cells was “effectively blocks the TPA-induced enhancement in cellular fluorescence”. In addition, the Ki entry on PKC is recorded as “low nanomolar range”.

The term Km denotes the substrate concentration at which the rate is half of its maximum. A word on the kcat: it is the number of substrate molecules converted per active site and unit of time at saturation.
